From ChEMBL document CHEMBL2407067, “Pyridone-conjugated monobactam antibiotics with gram-negative activity” (J Med Chem, 2013)
In brackets after ≈: the same amount, converted by molar mass.

Key:
Rattus norvegicus = experiment: Intrinsic clearance in Wistar Han rat at 1 mg/kg, iv by LC/MS/MS analysis; assay type: ADME, organism-based; parameters: dose 1 mg/kg, route intravenous; settings: in vivo
[1] = Fraction unbound in mouse plasma; assay type: ADME, cell-free
[2] = Plasma clearance in Wistar Han rat at 1 mg/kg, iv by LC/MS/MS analysis; assay type: ADME, organism-based; parameters: dose 1 mg/kg, route intravenous
[3] = Fraction unbound in rat plasma; assay type: ADME, cell-free
[4] = Fraction unbound in human plasma; assay type: ADME, cell-free
Acinetobacter baumannii = experiment: Antibacterial activity against Acinetobacter baumannii AB-3167 by broth microdilution method; assay type: functional
Klebsiella pneumoniae [5] = experiment: Antibacterial activity against Klebsiella pneumoniae 1000-02 by broth microdilution method; assay type: functional
Pseudomonas aeruginosa [6] = experiment: Antibacterial activity against Pseudomonas aeruginosa 1042-06 by broth microdilution method; assay type: functional
Pseudomonas aeruginosa [7] = experiment: microbe, parasite or virus in culture; settings: 1091-05
Description: Antibacterial activity against Pseudomonas aeruginosa 1091-05 by broth microdilution method

Pseudomonas aeruginosa [8] = experiment: Ratio of MIC for PiuA/PirA receptor-deficient Pseudomonas aeruginosa PAO1 to MIC for Pseudomonas aeruginosa PAO1 in iron-chelated Muller-Hinton broth medium by broth microdilution method; assay type: functional
Pseudomonas aeruginosa [9] = experiment: Ratio of MIC for PiuA/PirA receptor-deficient Pseudomonas aeruginosa PAO1 to MIC for Pseudomonas aeruginosa PAO1 in Muller-Hinton broth medium by broth microdilution method; assay type: functional
Pseudomonas aeruginosa [10] = experiment: Ratio of MIC for PiuA receptor-deficient Pseudomonas aeruginosa PAO1 to MIC for Pseudomonas aeruginosa PAO1 in Muller-Hinton broth medium by broth microdilution method; assay type: functional
Pseudomonas aeruginosa [11] = experiment: Antibacterial activity against PiuA/PirA receptor-deficient Pseudomonas aeruginosa PAO1 in iron-chelated Muller-Hinton broth medium by broth microdilution method; assay type: functional
Pseudomonas aeruginosa [12] = experiment: Antibacterial activity against PiuA/PirA receptor-deficient Pseudomonas aeruginosa PAO1 in Muller-Hinton broth medium by broth microdilution method; assay type: functional
Pseudomonas aeruginosa [13] = experiment: Antibacterial activity against PiuA/FptA receptor-deficient Pseudomonas aeruginosa PAO1 in iron-chelated Muller-Hinton broth medium by broth microdilution method; assay type: functional
Pseudomonas aeruginosa [14] = experiment: Antibacterial activity against PiuA/FptA receptor-deficient Pseudomonas aeruginosa PAO1 in Muller-Hinton broth medium by broth microdilution method; assay type: functional
Pseudomonas aeruginosa [15] = experiment: Antibacterial activity against PiuA/FpvA receptor-deficient Pseudomonas aeruginosa PAO1 in iron-chelated Muller-Hinton broth medium by broth microdilution method; assay type: functional
Pseudomonas aeruginosa [16] = experiment: Antibacterial activity against PiuA/FpvA receptor-deficient Pseudomonas aeruginosa PAO1 in Muller-Hinton broth medium by broth microdilution method; assay type: functional
Pseudomonas aeruginosa [17] = experiment: Antibacterial activity against FptA receptor-deficient Pseudomonas aeruginosa PAO1 in iron-chelated Muller-Hinton broth medium by broth microdilution method; assay type: functional
Pseudomonas aeruginosa [18] = experiment: Antibacterial activity against FptA receptor-deficient Pseudomonas aeruginosa PAO1 in Muller-Hinton broth medium by broth microdilution method; assay type: functional
Pseudomonas aeruginosa [19] = experiment: Antibacterial activity against FpvA receptor-deficient Pseudomonas aeruginosa PAO1 in iron-chelated Muller-Hinton broth medium by broth microdilution method; assay type: functional
Pseudomonas aeruginosa [20] = experiment: Antibacterial activity against FpvA receptor-deficient Pseudomonas aeruginosa PAO1 in Muller-Hinton broth medium by broth microdilution method; assay type: functional
Pseudomonas aeruginosa [21] = experiment: Antibacterial activity against PirA receptor-deficient Pseudomonas aeruginosa PAO1 in iron-chelated Muller-Hinton broth medium by broth microdilution method; assay type: functional
Pseudomonas aeruginosa [22] = experiment: Antibacterial activity against PirA receptor-deficient Pseudomonas aeruginosa PAO1 in Muller-Hinton broth medium by broth microdilution method; assay type: functional
Pseudomonas aeruginosa [23] = experiment: Antibacterial activity against PiuA receptor-deficient Pseudomonas aeruginosa PAO1 in iron-chelated Muller-Hinton broth medium by broth microdilution method; assay type: functional
Pseudomonas aeruginosa [24] = experiment: Antibacterial activity against PiuA receptor-deficient Pseudomonas aeruginosa PAO1 in Muller-Hinton broth medium by broth microdilution method; assay type: functional
Pseudomonas aeruginosa [25] = experiment: Antibacterial activity against Pseudomonas aeruginosa PAO1 in iron-chelated Muller-Hinton broth medium by broth microdilution method; assay type: functional
Pseudomonas aeruginosa [26] = experiment: Antibacterial activity against Pseudomonas aeruginosa PAO1 in Muller-Hinton broth medium by broth microdilution method; assay type: functional
Klebsiella pneumoniae [27] = experiment: Antibacterial activity against Klebsiella pneumoniae 1487-07 by broth microdilution method; assay type: functional
[28] = Inhibition of PBP3 in Pseudomonas aeruginosa ATCC 27853 after 20 mins by fluorescence assay
[29] = Inhibition of PBP2 in Pseudomonas aeruginosa ATCC 27853 after 20 mins by fluorescence assay
[30] = Inhibition of PBP1b in Pseudomonas aeruginosa ATCC 27853 after 20 mins by fluorescence assay
[31] = Inhibition of PBP1a in Pseudomonas aeruginosa ATCC 27853 after 20 mins by fluorescence assay
Pseudomonas aeruginosa [32] = experiment: Antibacterial activity against Pseudomonas aeruginosa from cystic fibrosis patients by broth microdilution method; assay type: functional
Acinetobacter sp. = experiment: Antibacterial activity against Acinetobacter spp. by broth microdilution method; assay type: functional
Escherichia coli [33] = experiment: Antibacterial activity against Escherichia coli expressing defined beta-lactamase by broth microdilution method; assay type: functional
Escherichia coli [34] = experiment: Antibacterial activity against Escherichia coli expressing CTX-M by broth microdilution method; assay type: functional
Escherichia coli [35] = experiment: Antibacterial activity against Escherichia coli expressing ESBL by broth microdilution method; assay type: functional
Klebsiella pneumoniae [36] = experiment: Antibacterial activity against Klebsiella pneumoniae expressing KPC by broth microdilution method; assay type: functional
Klebsiella pneumoniae [37] = experiment: Antibacterial activity against Klebsiella pneumoniae expressing ESBL by broth microdilution method; assay type: functional
Klebsiella pneumoniae [38] = experiment: Antibacterial activity against Klebsiella pneumoniae expressing defined beta-lactamase by broth microdilution method; assay type: functional
Pseudomonas aeruginosa [39] = experiment: Antibacterial activity against Pseudomonas aeruginosa expressing metallo-beta-lactamase by broth microdilution method; assay type: functional

## CC(C)(O/N=C(\C(=O)N[C@@H]1C(=O)N(S(=O)(=O)[O-])[C@@H]1CNC(=O)OCc1cc(=O)c(O)cn1O)c1csc(N)n1)C(=O)[O-].[Na+].[Na+]
Rattus norvegicus
  CL: 29 mL/min/kg
[1]
  fraction unbound: 0.72
[2]
  clearance: 14.2 mL/min/kg
[3]
  fraction unbound: 0.61
[4]
  fraction unbound: 0.51
Acinetobacter baumannii
  MIC: 0.125 µg/mL
Klebsiella pneumoniae [5]
  MIC: 4 µg/mL
Pseudomonas aeruginosa [6]
  MIC: 2 µg/mL
Pseudomonas aeruginosa [7]
  MIC: 0.25 µg/mL

## CC(C)(O/N=C(\C(=O)N[C@@H]1C(=O)N(S(=O)(=O)[O-])[C@@H]1CNC(=O)c1cc(=O)c(O)cn1O)c1csc(N)n1)C(=O)[O-].[Na+].[Na+]
Pseudomonas aeruginosa [8]
  Ratio: >=64
Pseudomonas aeruginosa [9]
  Ratio: >=64
Pseudomonas aeruginosa [10]
  Ratio: 16
Pseudomonas aeruginosa [11]
  MIC: 64 µg/mL
Pseudomonas aeruginosa [12]
  MIC: 64 µg/mL
Pseudomonas aeruginosa [13]
  MIC: 0.5 µg/mL
Pseudomonas aeruginosa [14]
  MIC: 8 µg/mL
Pseudomonas aeruginosa [15]
  MIC: 1 µg/mL
Pseudomonas aeruginosa [16]
  MIC: 16 µg/mL
Pseudomonas aeruginosa [17]
  MIC: 0.5 µg/mL
Pseudomonas aeruginosa [18]
  MIC: 0.5 µg/mL
Pseudomonas aeruginosa [19]
  MIC: 0.5 µg/mL
Pseudomonas aeruginosa [20]
  MIC: 1 µg/mL
Pseudomonas aeruginosa [21]
  MIC: 0.5 µg/mL
Pseudomonas aeruginosa [22]
  MIC: 0.5 µg/mL
Pseudomonas aeruginosa [23]
  MIC: 0.5 µg/mL
Pseudomonas aeruginosa [24]
  MIC: 8 µg/mL
Pseudomonas aeruginosa [25]
  MIC: 0.5 µg/mL
Pseudomonas aeruginosa [26]
  MIC: 0.5 µg/mL
Acinetobacter baumannii
  MIC: 0.5 µg/mL
Klebsiella pneumoniae [27]
  MIC: 0.25 µg/mL
Klebsiella pneumoniae [5]
  MIC: < 0.06 µg/mL
Pseudomonas aeruginosa [6]
  MIC: 0.5 µg/mL
Pseudomonas aeruginosa [7]
  MIC: 0.5 µg/mL

## CC(C)(O/N=C(\C(=O)N[C@@H]1C(=O)N(S(=O)(=O)O)[C@@H]1CNC(=O)NCc1cc(=O)c(O)cn1O)c1csc(N)n1)C(=O)O
Pseudomonas aeruginosa [8]
  Ratio: >=64
Pseudomonas aeruginosa [9]
  Ratio: >=64
Pseudomonas aeruginosa [10]
  Ratio: 32
[28]
  IC50: 54 nM
[29]
  IC50: > 300000 nM
[30]
  IC50: 1670 nM
[31]
  IC50: 620 nM
Rattus norvegicus
  CL: 10 mL/min/kg
[1]
  fraction unbound: 0.91
[2]
  clearance: 8.4 mL/min/kg
[3]
  fraction unbound: 0.91
[4]
  fraction unbound: 1
Pseudomonas aeruginosa [11]
  MIC: 32 µg/mL (≈ 50.6 µM)
Pseudomonas aeruginosa [12]
  MIC: 32 µg/mL (≈ 50.6 µM)
Pseudomonas aeruginosa [13]
  MIC: 0.5 µg/mL (≈ 0.79 µM)
Pseudomonas aeruginosa [14]
  MIC: 8 µg/mL (≈ 12.6 µM)
Pseudomonas aeruginosa [15]
  MIC: 0.25 µg/mL (≈ 0.395 µM)
Pseudomonas aeruginosa [16]
  MIC: 8 µg/mL (≈ 12.6 µM)
Pseudomonas aeruginosa [17]
  MIC: 0.25 µg/mL (≈ 0.395 µM)
Pseudomonas aeruginosa [18]
  MIC: 0.25 µg/mL (≈ 0.395 µM)
Pseudomonas aeruginosa [19]
  MIC: 0.06 µg/mL (≈ 0.0948 µM)
Pseudomonas aeruginosa [20]
  MIC: 0.25 µg/mL (≈ 0.395 µM)
Pseudomonas aeruginosa [21]
  MIC: 0.25 µg/mL (≈ 0.395 µM)
Pseudomonas aeruginosa [22]
  MIC: 0.25 µg/mL (≈ 0.395 µM)
Pseudomonas aeruginosa [23]
  MIC: 0.5 µg/mL (≈ 0.79 µM)
Pseudomonas aeruginosa [24]
  MIC: 8 µg/mL (≈ 12.6 µM)
Pseudomonas aeruginosa [26]
  MIC: 0.25 µg/mL (≈ 0.395 µM)
Pseudomonas aeruginosa [32]
  MIC50: 0.25 µg/mL (≈ 0.395 µM)
  MIC90: 4 µg/mL (≈ 6.32 µM)
Acinetobacter sp.
  MIC50: 8 µg/mL (≈ 12.6 µM)
  MIC90: > 64 µg/mL
Escherichia coli [33]
  MIC50: 0.125 µg/mL (≈ 0.198 µM)
  MIC90: 1 µg/mL (≈ 1.58 µM)
Escherichia coli [34]
  MIC50: 0.5 µg/mL (≈ 0.79 µM)
  MIC90: 1 µg/mL (≈ 1.58 µM)
Escherichia coli [35]
  MIC50: 0.25 µg/mL (≈ 0.395 µM)
  MIC90: 2 µg/mL (≈ 3.16 µM)
Klebsiella pneumoniae [36]
  MIC50: 4 µg/mL (≈ 6.32 µM)
  MIC90: 16 µg/mL (≈ 25.3 µM)
Klebsiella pneumoniae [37]
  MIC90: 1 µg/mL (≈ 1.58 µM)
Klebsiella pneumoniae [38]
  MIC50: 0.5 µg/mL (≈ 0.79 µM)
  MIC90: 16 µg/mL (≈ 25.3 µM)
Pseudomonas aeruginosa [39]
  MIC50: 0.25 µg/mL (≈ 0.395 µM)
  MIC90: 1 µg/mL (≈ 1.58 µM)
Acinetobacter baumannii
  MIC: 0.25 µg/mL (≈ 0.395 µM)
Klebsiella pneumoniae [27]
  MIC: 2 µg/mL (≈ 3.16 µM)
Klebsiella pneumoniae [5]
  MIC: 0.25 µg/mL (≈ 0.395 µM)
Pseudomonas aeruginosa [6]
  MIC: 2 µg/mL (≈ 3.16 µM)
Pseudomonas aeruginosa [7]
  MIC: 0.25 µg/mL (≈ 0.395 µM)
